Where a name gives a salt, the structure may show the parent alone. Read-outs that look alike come from different tables or passages of the source.
Legend:
[1] = biological target: human recombinant AChE (hAChE; E.C. 3.1.1.7) (Homo sapiens, UniProt P22303); test: biochemical; details: for IC50: human recombinant AChE, Ellman's method, phosphate buffer pH 7.4, mean of three independent determinations ± SD; for SI (selectivity index for hAChE): ratio of IC50 hBChE towards IC50 hAChE
[2] = biological target: human plasmatic BChE (hBChE; E.C. 3.1.1.8) (Homo sapiens, UniProt P06276); test: biochemical
[3] = human plasmatic BChE, Ellman's method, phosphate buffer pH 7.4, mean of three independent determinations ± SD, read-out: IC50 (µM) ± SD hBChE

Chain of human plasmatic BChE (hBChE; E.C. 3.1.1.8) (P06276 29-602): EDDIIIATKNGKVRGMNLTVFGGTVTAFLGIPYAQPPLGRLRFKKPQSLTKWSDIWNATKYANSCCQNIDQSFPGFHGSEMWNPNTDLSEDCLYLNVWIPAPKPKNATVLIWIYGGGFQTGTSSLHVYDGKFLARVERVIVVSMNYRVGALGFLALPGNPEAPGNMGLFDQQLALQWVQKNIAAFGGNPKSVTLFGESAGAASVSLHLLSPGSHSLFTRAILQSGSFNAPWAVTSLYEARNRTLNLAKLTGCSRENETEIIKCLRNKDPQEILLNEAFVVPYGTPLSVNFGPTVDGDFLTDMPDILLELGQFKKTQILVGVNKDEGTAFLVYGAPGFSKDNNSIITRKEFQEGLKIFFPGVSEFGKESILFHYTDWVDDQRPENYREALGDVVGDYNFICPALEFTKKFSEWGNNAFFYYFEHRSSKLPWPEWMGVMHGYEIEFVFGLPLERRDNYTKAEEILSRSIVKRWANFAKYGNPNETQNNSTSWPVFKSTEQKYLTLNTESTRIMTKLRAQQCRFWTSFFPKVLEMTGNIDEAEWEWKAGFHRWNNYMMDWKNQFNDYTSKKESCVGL
Chain of human recombinant AChE (hAChE; E.C. 3.1.1.7) (P22303 32-614): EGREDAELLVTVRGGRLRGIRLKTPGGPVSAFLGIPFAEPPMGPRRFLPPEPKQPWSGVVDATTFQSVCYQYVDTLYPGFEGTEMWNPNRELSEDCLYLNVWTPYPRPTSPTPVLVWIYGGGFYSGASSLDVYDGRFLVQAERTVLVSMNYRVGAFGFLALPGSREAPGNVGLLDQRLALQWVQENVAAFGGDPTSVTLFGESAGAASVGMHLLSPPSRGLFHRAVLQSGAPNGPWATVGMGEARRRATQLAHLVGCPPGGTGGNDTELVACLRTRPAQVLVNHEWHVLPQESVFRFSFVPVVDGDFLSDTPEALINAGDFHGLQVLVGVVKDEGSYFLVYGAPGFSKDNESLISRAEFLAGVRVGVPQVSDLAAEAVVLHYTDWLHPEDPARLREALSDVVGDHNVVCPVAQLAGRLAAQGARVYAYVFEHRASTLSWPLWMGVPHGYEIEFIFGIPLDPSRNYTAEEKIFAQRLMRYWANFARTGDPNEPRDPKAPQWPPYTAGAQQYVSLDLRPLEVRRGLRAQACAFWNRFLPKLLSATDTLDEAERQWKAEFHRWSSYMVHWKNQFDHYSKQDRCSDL

| Structure (SMILES) | IC50 [1] [µM] | SI (selectivity index for hAChE) [1] | IC50 [2, 3] [µM] | IC50 [2] [µM] |
| --- | --- | --- | --- | --- |
| COc1ccc2nc3c(c(NCCCCCCCN)c2c1)CCCC3 [Compound 8, N-(7-Methoxy-1,2,3,4-tetrahydroacridin-9-yl)heptane-1,7-diamine] | 0.86 ± 0.17 | 8.4 | 7.26 ± 1.21 | – |
| COc1ccc2nc3c(c(NCCCCNC(=S)NC45CC6CC(CC(C6)C4)C5)c2c1)CCCC3 [Compound 13] | 2.04 ± 0.39 | 0.5 | 0.98 ± 0.16 | – |
| COc1ccc2nc3c(c(NCCCCCCCCN)c2c1)CCCC3 [Compound 9, N-(7-Methoxy-1,2,3,4-tetrahydroacridin-9-yl)octane-1,8-diamine] | 0.47 ± 0.09 | 21.4 | 10.1 ± 1.68 | – |
| COc1ccc2nc3c(c(NCCNC(=S)NC45CC6CC(CC(C6)C4)C5)c2c1)CCCC3 [Compound 11, 1-Adamantyl-3-(2-(7-methoxy-1,2,3,4-tetrahydroacridin-9-yl-amino)ethyl)thiourea 2,3-dihydroxysuccinate] | 5.02 ± 0.98 | 1.2 | 6.02 ± 1.01 | – |
| COc1ccc2nc3c(c(NCCCCCCN)c2c1)CCCC3 [Compound 7, N-(7-Methoxy-1,2,3,4-tetrahydroacridin-9-yl)hexane-1,6-diamine] | 0.21 ± 0.04 | 51.6 | 10.8 ± 1.81 | – |
| NC12CC3CC(CC(C3)C1)C2 [amantadine, 1-adamantylamine hydrochloride, reference compound] | – | – | 103 ± 17.1 | – |
| COc1ccc2nc3c(c(NCCN)c2c1)CCCC3 [Compound 3, N-(7-Methoxy-1,2,3,4-tetrahydroacridin-9-yl)ethane-1,2-diamine] | 5.32 ± 1.04 | 12.1 | 64.4 ± 10.8 | – |
| COc1ccc2nc3c(c(NCCCCCCCNC(=S)NC45CC6CC(CC(C6)C4)C5)c2c1)CCCC3 [Compound 16, 1-Adamantyl-3-(2-(7-methoxy-1,2,3,4-tetrahydroacridin-9-yl-amino)heptyl)thiourea 2,3-dihydroxy-succinate] | 3.47 ± 0.67 | 0.04 | 0.15 ± 0.02 | – |
| COc1ccc2nc3c(c(NCCCCCCCCNC(=S)NC45CC6CC(CC(C6)C4)C5)c2c1)CCCC3 [Compound 17] | 1.62 ± 0.31 | 0.2 | 0.26 ± 0.04 | – |
| COc1ccc2nc3c(c(NCCCCCNC(=S)NC45CC6CC(CC(C6)C4)C5)c2c1)CCCC3 [Compound 14] | 0.47 ± 0.09 | 0.2 | 0.11 ± 0.02 | – |
| COc1ccc2nc3c(c(NCCCCCCNC(=S)NC45CC6CC(CC(C6)C4)C5)c2c1)CCCC3 [Compound 15] | 2.09 ± 0.4 | 0.2 | 0.33 ± 0.05 | – |
| COc1ccc2nc3c(c(NCCCCCN)c2c1)CCCC3 [Compound 6, N-(7-Methoxy-1,2,3,4-tetrahydroacridin-9-yl)pentane-1,5-diamine] | 3.44 ± 0.67 | 8.6 | 29.6 ± 4.95 | – |
| COc1ccc2nc3c(c(NCCCNC(=S)NC45CC6CC(CC(C6)C4)C5)c2c1)CCCC3 [Compound 12] | 0.53 ± 0.1 | 2.6 | 1.39 ± 0.23 | – |
| COc1ccc2nc3c(c(NCCCCN)c2c1)CCCC3 [Compound 5, N-(7-Methoxy-1,2,3,4-tetrahydroacridin-9-yl)butane-1,4-diamine] | 1.42 ± 0.28 | 6.5 | 9.22 ± 1.54 | – |
| S=C=NC12CC3CC(CC(C3)C1)C2 [Compound 10, 1-Adamantyl isothiocyanate, reference compound] | 25 ± 4.87 | 3.9 | – | 96.9 ± 16.2 |
| COc1ccc2nc3c(c(NCCCN)c2c1)CCCC3 [Compound 4, N-(7-Methoxy-1,2,3,4-tetrahydroacridin-9-yl)propane-1,3-diamine] | 1.93 ± 0.38 | 25.8 | 49.8 ± 8.31 | – |

Reference: article PMC6270602 (Molecules, 2013)
